Reference: ChEMBL document CHEMBL1147725, “Identification and biological characterization of 6-aryl-7-isopropylquinazolinones as novel TRPV1 antagonists that are effective in models of chronic pain” (J Med Chem, 2006)

Molecular target: Transient receptor potential cation channel subfamily V member 1 (Homo sapiens, UniProt Q8NER1)
Assay: Inhibition of calcium influx evoked by capsaicin in human TRPV1 expressing cells by fluorescence assay
Format: functional

Sequence of Transient receptor potential cation channel subfamily V member 1 (Q8NER1 whole entry): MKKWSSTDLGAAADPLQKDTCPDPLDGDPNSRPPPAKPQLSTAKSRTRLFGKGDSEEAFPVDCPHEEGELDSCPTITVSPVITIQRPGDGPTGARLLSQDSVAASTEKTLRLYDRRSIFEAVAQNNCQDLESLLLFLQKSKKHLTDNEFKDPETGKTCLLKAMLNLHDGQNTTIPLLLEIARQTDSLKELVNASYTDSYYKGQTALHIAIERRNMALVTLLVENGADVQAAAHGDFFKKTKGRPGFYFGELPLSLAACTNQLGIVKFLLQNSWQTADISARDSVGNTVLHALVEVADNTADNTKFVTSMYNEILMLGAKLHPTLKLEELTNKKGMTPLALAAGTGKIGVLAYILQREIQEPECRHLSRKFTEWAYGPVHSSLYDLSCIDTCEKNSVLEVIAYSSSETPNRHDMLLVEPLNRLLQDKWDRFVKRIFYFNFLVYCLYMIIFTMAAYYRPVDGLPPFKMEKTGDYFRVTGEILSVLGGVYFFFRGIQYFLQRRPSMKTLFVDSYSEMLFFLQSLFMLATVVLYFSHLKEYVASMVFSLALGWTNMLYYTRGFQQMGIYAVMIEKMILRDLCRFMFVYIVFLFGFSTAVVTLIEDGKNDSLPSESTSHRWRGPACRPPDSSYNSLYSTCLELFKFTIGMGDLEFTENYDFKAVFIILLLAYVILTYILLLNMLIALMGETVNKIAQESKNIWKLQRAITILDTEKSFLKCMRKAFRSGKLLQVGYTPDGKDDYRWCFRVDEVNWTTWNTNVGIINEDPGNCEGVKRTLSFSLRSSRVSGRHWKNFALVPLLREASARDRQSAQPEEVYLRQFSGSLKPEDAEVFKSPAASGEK

IC50	SMILES
> 1000 nM	CCc1nc2cc(C(C)C)c(-c3ccc(Cl)cc3)cc2c(=O)[nH]1
216 nM	COCCOc1cc(-c2cc3c(=O)[nH]c(C)nc3cc2C(C)C)ccc1Cl
